This note sets out measurements from patent US20100016396A1, “PYRAZOLE COMPOUND” (priority 2007, published 2010).

For the assay, the target named is T1, PPARγ-RXRα heterodimer (Homo sapiens, UniProt P37231).
T1 construct: expressed in transfected cells; host or cells: CHO-K1
T1 sequence (P37231 1-505): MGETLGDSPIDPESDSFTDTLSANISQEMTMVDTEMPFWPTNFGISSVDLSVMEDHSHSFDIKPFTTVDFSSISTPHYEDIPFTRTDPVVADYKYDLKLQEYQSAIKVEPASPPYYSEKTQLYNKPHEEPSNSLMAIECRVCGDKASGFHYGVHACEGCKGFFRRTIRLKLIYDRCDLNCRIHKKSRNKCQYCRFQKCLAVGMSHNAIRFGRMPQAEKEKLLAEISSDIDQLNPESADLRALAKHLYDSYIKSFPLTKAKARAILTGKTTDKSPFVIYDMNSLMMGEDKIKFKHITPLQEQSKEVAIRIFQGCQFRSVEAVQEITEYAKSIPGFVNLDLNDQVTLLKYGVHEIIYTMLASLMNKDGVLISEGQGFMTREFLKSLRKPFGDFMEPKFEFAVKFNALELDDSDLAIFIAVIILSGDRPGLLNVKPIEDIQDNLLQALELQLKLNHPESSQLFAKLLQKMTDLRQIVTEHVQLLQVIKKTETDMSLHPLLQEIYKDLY
T1 sequence (P19793 1-462 partner): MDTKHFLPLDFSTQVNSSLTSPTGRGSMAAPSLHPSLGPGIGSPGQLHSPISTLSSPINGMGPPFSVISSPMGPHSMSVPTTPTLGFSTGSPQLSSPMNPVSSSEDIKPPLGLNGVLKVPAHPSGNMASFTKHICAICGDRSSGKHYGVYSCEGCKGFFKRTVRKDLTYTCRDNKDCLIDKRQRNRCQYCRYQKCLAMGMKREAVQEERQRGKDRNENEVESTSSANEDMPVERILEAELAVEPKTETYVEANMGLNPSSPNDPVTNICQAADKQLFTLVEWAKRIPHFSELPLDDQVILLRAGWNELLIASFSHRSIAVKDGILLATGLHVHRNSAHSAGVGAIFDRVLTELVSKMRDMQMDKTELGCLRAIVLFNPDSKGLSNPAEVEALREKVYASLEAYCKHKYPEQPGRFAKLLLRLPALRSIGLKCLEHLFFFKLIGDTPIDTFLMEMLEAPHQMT
Put plainly: PPARγ-RXRα heterodimer ligand activity (luciferase reporter in PPARγ:RXRα:4ERPP/CHO-K1 cells). It is filed as cell-based. The following applies: luciferase induction ratio, 1 day culture, concentration showing 50% of the maximum induction ratio. Here is the method:
PPARγ:RXRα:4ERPP/CHO-K1 cells described in WO03/099793 were cultured in hamF12 medium [manufactured by Life Technologies, Inc., USA] supplemented with 10% fetal bovine serum [manufactured by Life Technologies, Inc., USA], plated on a 96 well white half area plate [manufactured by Corning Coster Corporation, USA] at 1×10^4 cells/well and cultured overnight in a carbon dioxide gas incubator at 37° C.
The medium was removed from the 96 well white half area plate, 45 μl of hamF12 medium containing 0.1% fatty acid-free bovine serum albumin (BSA) and 5 μl of a test compound were added, and the cells were cultured in a carbon dioxide gas incubator at 37° C. for 1 day. The medium was removed, and 20 μl of PicaGene 7.5 (manufactured by Wako Pure Chemical Industries, Ltd.) diluted 2-fold with HBSS (HANKS' BALANCED SALT SOLUTION) [manufactured by BIO WHITTAKER, USA] was added. After stirring, the luciferase activity was measured using a 1420 ARVO Multilabel Counter [manufactured by Perkin Elmer Inc., USA].
The induction ratio was calculated from the luciferase activity of each test compound relative to the luciferase activity of the test compound non-administration group as 1. The concentration of the test compound and the induction ratio were analyzed using PRISM [manufactured by GraphPad Software, Inc., USA] and EC50 value (concentration of compound showing 50% of the maximum induction ratio) of the test compound was calculated.
Background: In a reporter assay the amount or activity of a reporter protein is the signal.

A word on the EC50: it is the midpoint of the concentration-response curve. As to `CCc1c(C(F)(F)F)nn(C)c1Oc1cc(O[C@@H](C)C(=O)O)c(Cl)cc1Cl` [Example 76, (2S)-2-(2,4-dichloro-5-{[4-ethyl-1-methyl-3-(trifluoromethyl)-1H-pyrazol-5-yl]oxy}phenoxy)propionic acid], the EC50 is 9.9 nM.

For the compound `C[C@H](Oc1cc(Oc2c3c(nn2C)CCCC3)c(Cl)cc1Cl)C(=O)O` [Example 31, (2S)-2-{2,4-dichloro-5-[(2-methyl-4,5,6,7-tetrahydro-2H-indazol-3-yl)oxy]phenoxy}propionic acid], the half-maximal effective concentration (EC50) came to 9.3 nM.

Consider `Cc1nn(C)c(Sc2cc(O[C@@H](C)C(=O)O)c(Cl)cc2Cl)c1C#N` [Example 210, (2S)-2-{2,4-dichloro-5-[(4-cyano-1,3-dimethyl-1H-pyrazol-5-yl)thio]phenoxy}propionic acid], for which the EC50 was 9.9 nM.

For `Cc1c(C(F)(F)F)nn(C)c1Oc1cc(O[C@@H](C)C(=O)O)c(Cl)cc1Cl` [Example 74, (2S)-2-(2,4-dichloro-5-{[1,4-dimethyl-3-(trifluoromethyl)-1H-pyrazol-5-yl]oxy}phenoxy)propionic acid], the concentration giving a half-maximal response (EC50) was determined as 13 nM.

For `CCNC(=O)OCCCc1c(C)nn(C)c1Oc1cc(O[C@@H](C)C(=O)O)c(Cl)cc1Cl` [Example 298, (2S)-2-(2,4-dichloro-5-{[4-(3-{[(ethylamino)carbonyl]oxy}propyl)-1,3-dimethyl-1H-pyrazol-5-yl]oxy}phenoxy)propionic acid], the EC50 is 17 nM.

As for `C=Cc1c(CCC)nn(C)c1Oc1cc(O[C@@H](C)C(=O)O)c(Cl)cc1Cl` [Example 41, (2S)-2-{2,4-dichloro-5-[(1-methyl-3-propyl-4-vinyl-1H-pyrazol-5-yl)oxy]phenoxy}propionic acid], the half-maximal effective concentration (EC50) came to 2.4 nM.

Take `Cc1nn(C)c(Oc2cc(O[C@@H](C)C(=O)O)c(Cl)cc2Cl)c1C#N` [Example 106, (2S)-2-{2,4-dichloro-5-[(4-cyano-1,3-dimethyl-1H-pyrazol-5-yl)oxy]phenoxy}propionic acid]: the concentration for a half-maximal effect (EC50) amounted to 120 nM.

With `CON=Cc1c(C)nn(C)c1Oc1cc(O[C@@H](C)C(=O)O)c(Cl)cc1Cl` [Example 123, (2S)-2-[2,4-dichloro-5-({4-[(methoxyimino)methyl]-1,3-dimethyl-1H-pyrazol-5-yl}oxy)phenoxy]propionic acid], the EC50 came to 4.1 nM.

Take `Cc1nn(C)c(Oc2cc(O[C@@H](C)C(=O)O)c(Cl)cc2Cl)c1C` [Example 1, (2S)-2-{2,4-dichloro-5-[(1,3,4-trimethyl-1H-pyrazol-5-yl)oxy]phenoxy}propionic acid]: the concentration giving a half-maximal response (EC50) came to 24 nM.

For the compound `CCC/C=C/c1c(C)nn(C)c1Oc1cc(O[C@@H](C)C(=O)O)c(Cl)cc1Cl` [Example 89, (2S)-2-[2,4-dichloro-5-({1,3-dimethyl-4-[(1E)-1-penten-1-yl]-1H-pyrazol-5-yl}oxy)phenoxy]propionic acid], the 50% effective concentration (EC50) turned out to be 2 nM.

Consider `Cc1nn(C)c(Oc2cc(O[C@@H](C)C(=O)O)c(Cl)cc2Cl)c1C=NOCc1ccccc1` [Example 125, (2S)-2-{5-[(4-{[(benzyloxy)imino]methyl}-1,3-dimethyl-1H-pyrazol-5-yl)oxy]-2,4-dichlorophenoxy}propionic acid], for which the concentration for a half-maximal effect (EC50) turned out to be 3.1 nM.

Consider `Cc1nn(C)c(Sc2cc(O[C@@H](C)C(=O)O)c(Cl)cc2Cl)c1C` [Example 115, (2S)-2-{2,4-dichloro-5-[(1,3,4-trimethyl-1H-pyrazol-5-yl)thio]phenoxy}propionic acid], for which the EC50 amounted to 10 nM.

`C=Cc1c(C)nn(C)c1Oc1cc(O[C@@H](C)C(=O)O)c(Cl)cc1Cl` [Example 14, (2S)-2-{2,4-dichloro-5-[(1,3-dimethyl-4-vinyl-1H-pyrazol-5-yl)oxy]phenoxy}propionic acid]: the EC50 is 5 nM.

Consider `Cc1nn(C)c(Oc2cc(O[C@@H](C)C(=O)O)c(Cl)cc2Cl)c1/C=N/O` [Example 104, (2S)-2-[2,4-dichloro-5-({4-[(E)-(hydroxyimino)methyl]-1,3-dimethyl-1H-pyrazol-5-yl}oxy)phenoxy]propionic acid], for which the EC50 stood at 25 nM.

As for `C=Cc1c(C(F)(F)F)nn(C)c1Oc1cc(O[C@@H](C)C(=O)O)c(Cl)cc1Cl` [Example 20, (2S)-2-(2,4-dichloro-5-{[1-methyl-3-(trifluoromethyl)-4-vinyl-1H-pyrazol-5-yl]oxy}phenoxy)propionic acid], the EC50 was determined as 3.7 nM.

With `C=Cc1c(C(C)C)nn(C)c1Oc1cc(O[C@@H](C)C(=O)O)c(Cl)cc1Cl` [Example 43, (2S)-2-{2,4-dichloro-5-[(3-isopropyl-1-methyl-4-vinyl-1H-pyrazol-5-yl)oxy]phenoxy}propionic acid], the 50% effective concentration (EC50) is 4.6 nM.

Regarding `C[C@H](Oc1cc(Oc2c3ccccc3nn2C)c(Cl)cc1Cl)C(=O)O` [Example 30, (2S)-2-{2,4-dichloro-5-[(2-methyl-2H-indazol-3-yl)oxy]phenoxy}propionic acid], the half-maximal effective concentration (EC50) was determined as 5.8 nM.

With `Cc1cc(Br)c(O[C@@H](C)C(=O)O)cc1Oc1c(C#N)c(C2CC2)nn1C` [Example 256, (2S)-2-{2-bromo-5-[(4-cyano-3-cyclopropyl-1-methyl-1H-pyrazol-5-yl)oxy]-4-methylphenoxy}propionic acid], the concentration for a half-maximal effect (EC50) amounted to 22 nM.
